According to article PMC8765781, “A platform of assays for the discovery of anti-Zika small-molecules with activity in a 3D-bioprinted outer-blood-retina model” (PLoS ONE, 2022):
Read-outs that look alike come from different tables or passages of the source.

How the values were obtained:
[1] = system: ZIKV-RLuc (Cambodian strain FSS13025); experiment: microbe, parasite or virus in culture; type: cell-based, Zika virus
[2] = Zika virus, Vero, read-out: Log AC50 (M) (converted)

Structure (SMILES)	AC50 (Vero cells) [µM]	Log AC50 (M) (Vero cells)	CC-v2 (curve class classification v2 of the dose response curve) [1]	Efficacy (difference between neutral response and maximum compound response) [1]	Max Resp (difference between neutral response and compound response for highest compound concentration) [1]	AC50 ([1]; Zika virus, Vero) [M]	AC50 [1, 2] [M]	Efficacy (difference between neutral response and maximum compound response) (Vero cells)	Max Resp (difference between neutral response and compound response for highest compound concentration) (Vero cells)	Curve class [1]	Efficacy [1]	Emax ([1]; Zika virus, Vero, read-out: Max response) [%]
Nc1nc(Nc2ccc([S+](N)(=O)[O-])cc2)nn1C(=O)c1c(F)cccc1F [NCGC00263151-01]	16.5	-4.7827	-2.1	-94.324	-90.046	1.65e-05	1.65e-05					
C/C(=C\CO)CC/C=C(\C)CCC(O)C(C)(O)CCCC(C)(O)CCCC(C)(O)CCCC(C)(O)CCCC(C)(O)CCCC(C)(O)CCCC(C)(C)O (stereo not shown) [NCGC00381040-01]	1.44	-5.8408	-1.1	-92.604	-99.402	1.44e-06	1.44e-06					
Cc1nc(Nc2ncc(C(=O)Nc3c(C)cccc3Cl)s2)cc(N2CCN(CCO)CC2)n1 [NCGC00181129-05]		-7.0699	-1.1	-120.53	-95.603	8.51e-08	8.51e-08					
CCCCC/C=C/C(=O)CCc1ccc(O)c(OC)c1 [NCGC00169591-02]	18.5	-4.7327	-2.1	-87.809	-86.687	1.85e-05	1.85e-05					
CC(C)(C)OC(=O)Nc1ccc(-c2cc(C(=O)NCCCCCCC(=O)NO)no2)cc1 [NCGC00250390-04]	2.09	-5.6796	-2.2	-83.763	-67.554	2.09e-06	2.09e-06					
CC(C)c1cc(-c2n[nH]c(=O)n2-c2ccc3c(ccn3C)c2)c(O)cc1O [NCGC00346678-01]	8.27	-5.0827	-2.2	-44.79	-44.962	8.27e-06	8.27e-06					
CC(=O)c1c(C)c2cnc(Nc3ccc(N4CCNCC4)cn3)nc2n(C2CCCC2)c1=O [NCGC00263129-04]	16.5	-4.7827	-2.2	-88.43	-70.898	1.65e-05	1.65e-05					
C/C=C(\C)C(=O)O[C@H]1CC2C(=C1C)[C@H]1OC(=O)[C@](C)(O)[C@]1(O)[C@H](OC(=O)CCC)C[C@@]2(C)OC(C)=O (stereo partly shown) [NCGC00169033-03]		-5.6408	-1.1	-98.201	-99.812	2.29e-06	2.29e-06					
C[C@]12CC[C@@H]3c4ccc(O)cc4CC[C@H]3[C@@H]1CC[C@@H]2O [NCGC00091544-08]	26.9	-4.5699	-2.2	-64.056	-67.89	2.69e-05	2.69e-05					
CC(=O)N(C)C1(c2ccccc2)CCN(CCC[C@]2(c3ccc(Cl)c(Cl)c3)CCCN(C(=O)c3ccccc3)C2)CC1 [NCGC00263110-01]	18.5	-4.7327	-2.1	-124.29	-100.789	1.85e-05	1.85e-05					
CC(C)=CCCC(C)(O)CCCC(C)(O)CCCC(C)(O)CCCC(C)(O)CCCC(C)(O)CCCC(C)(O)C(O)CC/C(C)=C/CC/C(C)=C/CO[C@@H]1O[C@H](CO)[C@@H](O)[C@H](O)[C@H]1O (stereo partly shown) [NCGC00347748-02]	3.62	-5.4408	-1.1	-100.94	-99.117	3.62e-06	3.62e-06					
C[S+]([O-])c1ccc(-c2nc(-c3ccc(F)cc3)c(-c3ccncc3)[nH]2)cc1 (stereo not shown) [NCGC00025035-05]	47.9	-4.3199	-2.1	-107.599	-87.79	4.79e-05	4.79e-05					
CCN(CC)CCOc1ccc(C(=C(Cl)c2ccccc2)c2ccccc2)cc1 [NCGC00164385-05]	23.3	-4.6327	-2.1	-102.171	-98.776	2.33e-05	2.33e-05					
CCNC(=O)c1cc2c(-c3cc(OCCN4CCCC4)c(Cl)cc3Cl)nc(N)nc2s1 [NCGC00247879-01]								-14.131	2.045	4	-14.131	2.04
Oc1cc(O)cc(CCCCC/C=C\CCCCCCCc2cc(O)cc(O)c2)c1 [NCGC00385180-01]		-4.4327	-3	-110.94	-89.374	3.69e-05	3.69e-05					
CC(C)(Sc1ccc(CCN(CCCCC2CCCCC2)C(=O)NC2CCCCC2)cc1)C(=O)O [NCGC00015480-13]	32.9		-2.2	-93.466	-98.662	3.29e-05	3.29e-05					
COc1ccc(CCN(C)CCCC(C#N)(c2ccc(OC)c(OC)c2)C(C)C)cc1OC (stereo not shown) [NCGC00016083-13]	15.1	-4.8199				1.51e-05	1.51e-05					
CCOC(=O)N1CCN(/[N+]([O-])=N/Oc2ccc([N+](=O)[O-])cc2C#N)CC1 [NCGC00346969-01]	3.29	-5.4827	-1.1	-94.201	-99.104	3.29e-06	3.29e-06					
O=C(NCc1ccccc1)c1csc(Nc2ccncn2)n1 [NCGC00187983-01]	14.7	-4.8327	-2.1	-99.244	-100.568	1.47e-05	1.47e-05					
O=C(N[C@@H](c1ccccc1)[C@@H]1CCCCN1)c1cccc(C(F)(F)F)c1Cl [NCGC00247954-02]	42.7	-4.3699	-2.1	-87.335	-99.352	4.27e-05	4.27e-05					
COC(=O)[C@]12CCC(C)(C)C[C@H]1[C@H]1C(=O)C=C3[C@@]4(C)C=C(C#N)C(=O)C(C)(C)[C@@H]4CC[C@@]3(C)[C@]1(C)CC2 [NCGC00186460-02]	0.369	-6.4327	-1.1	-99.409	-99.593	3.69e-07	3.69e-07					
CCCCCCCCCCCC(CC1OC(=O)C1CCCCCC)OC(=O)C(CC(C)C)NC=O (stereo not shown) [NCGC00095128-04]	29.3	-4.5327	-2.1	-95.825	-91.668	2.93e-05	2.93e-05					
CC1(C)CCC(C)(C)c2cc(NC(=O)c3ccc(C(=O)O)cc3)ccc21 [NCGC00181111-01]	36.9	-4.4327	-3	-105.549	-80.478	3.69e-05	3.69e-05					
CCNC(=O)c1noc(-c2cc(C(C)C)c(O)cc2O)c1-c1ccc(CN2CCOCC2)cc1 [NCGC00247878-08]	36.9	-4.4327	-2.3	-68.402	-90.15	3.69e-05	3.69e-05					
C1=C/COCc2cc(ccc2OCCN2CCCC2)Nc2nccc(n2)-c2cccc(c2)OCC/1 [NCGC00249346-02]	1.17	-5.9327	-1.1	-91.692	-99.088	1.17e-06	1.17e-06					
